Here are results for 13 molecules from ChEMBL document CHEMBL1152992, “RmtC 16S rRNA methyltransferase in Australia” (2008).

≈ marks a conversion by molar mass, not a printed value. Where only a bound is given, the exact number is not on record here.

One may read the MIC as the lowest concentration found to suppress growth. Lower therefore signals a more susceptible organism.

This assay relates to Proteus mirabilis. Briefly: Antimicrobial activity against Proteus mirabilis JIE273 expressing 16S rRNA methyltransferase RmtC. Type of assay: functional.

In turn, `CC1(C)S[C@@H]2[C@H](NC(=O)[C@H](N)c3ccccc3)C(=O)N2[C@H]1C(=O)O` [AMPICILLIN] gave an MIC greater than 16 µg/mL. In turn, `CO/N=C(\C(=O)N[C@@H]1C(=O)N2C(C(=O)O)=C(CSc3nc(=O)c(O)nn3C)CS[C@H]12)c1csc(N)n1` [CEFTRIAXONE] had an MIC greater than 32 µg/mL.

`CO[C@@]1(NC(=O)Cc2cccs2)C(=O)N2C(C(=O)O)=C(COC(N)=O)CS[C@@H]21` [CEFOXITIN] came in with an MIC of no more than 4 µg/mL.

As to `CO/N=C(\C(=O)N[C@@H]1C(=O)N2C(C(=O)O)=C(COC(N)=O)CS[C@H]12)c1ccco1` [CEFUROXIME], the MIC is greater than 16 µg/mL. As for `O=C(O)c1cn(C2CC2)c2cc(N3CCNCC3)c(F)cc2c1=O` [CIPROFLOXACIN], the figure is greater than 2 µg/mL; as for `C[C@H]1COc2c(N3CCN(C)CC3)c(F)cc3c(=O)c(C(=O)O)cn1c23.C[C@H]1COc2c(N3CCN(C)CC3)c(F)cc3c(=O)c(C(=O)O)cn1c23.O` [LEVOFLOXACIN], greater than 4 µg/mL.

Consider `CC1(C)S[C@@H]2[C@H](NC(=O)[C@H](C(=O)O)c3ccsc3)C(=O)N2[C@H]1C(=O)O` [TICARCILLIN], for which the MIC was 32 µg/mL (≈ 83.2 µM). The result for `CCn1cc(C(=O)O)c(=O)c2ccc(C)nc21` [NALIDIXIC ACID] reads greater than 32 µg/mL; that for `CC(=O)OCC1=C(C(=O)O)N2C(=O)[C@@H](NC(=O)Cc3cccs3)[C@H]2SC1` [CEPHALOTHIN], greater than 16 µg/mL. For the molecule `CO/N=C(\C(=O)N[C@@H]1C(=O)N2C(C(=O)O)=C(COC(C)=O)CS[C@H]12)c1csc(N)n1` [CEFOTAXIME], the MIC was greater than 32 µg/mL. As for `CC(C)(O/N=C(\C(=O)N[C@@H]1C(=O)N2C(C(=O)[O-])=C(C[n+]3ccccc3)CS[C@H]12)c1csc(N)n1)C(=O)O` [CEFTAZIDIME], the figure is greater than 16 µg/mL; as for `C[C@H]1[C@H](NC(=O)/C(=N\OC(C)(C)C(=O)O)c2csc(N)n2)C(=O)N1S(=O)(=O)O` [AZTREONAM], greater than 16 µg/mL; as for `C[C@@H](O)[C@H]1C(=O)N2C(C(=O)O)=C(SCCNC=N)C[C@H]12` [IMIPENEM ANHYDROUS], no more than 2 µg/mL.
